Earlier results on one substance are cited in patent US20130109633A1, “CB-183,315 Compositions and Related Methods” (Cubist Pharmaceuticals, Inc., priority 2011, published 2013).

For this data set, the system named is a broad spectrum of bacteria, including drug-resistant bacteria and C. difficile.

For CB-183,315, the antibacterial activity result is listed as “antibacterial activity against a broad spectrum of bacteria” and the bacteriacidal activity result is listed as “exhibits bacteriacidal activity”.
